Biological target: T1, Solute carrier family 15 member 1 (Homo sapiens) (UniProt P46059)
T1 sequence (whole entry): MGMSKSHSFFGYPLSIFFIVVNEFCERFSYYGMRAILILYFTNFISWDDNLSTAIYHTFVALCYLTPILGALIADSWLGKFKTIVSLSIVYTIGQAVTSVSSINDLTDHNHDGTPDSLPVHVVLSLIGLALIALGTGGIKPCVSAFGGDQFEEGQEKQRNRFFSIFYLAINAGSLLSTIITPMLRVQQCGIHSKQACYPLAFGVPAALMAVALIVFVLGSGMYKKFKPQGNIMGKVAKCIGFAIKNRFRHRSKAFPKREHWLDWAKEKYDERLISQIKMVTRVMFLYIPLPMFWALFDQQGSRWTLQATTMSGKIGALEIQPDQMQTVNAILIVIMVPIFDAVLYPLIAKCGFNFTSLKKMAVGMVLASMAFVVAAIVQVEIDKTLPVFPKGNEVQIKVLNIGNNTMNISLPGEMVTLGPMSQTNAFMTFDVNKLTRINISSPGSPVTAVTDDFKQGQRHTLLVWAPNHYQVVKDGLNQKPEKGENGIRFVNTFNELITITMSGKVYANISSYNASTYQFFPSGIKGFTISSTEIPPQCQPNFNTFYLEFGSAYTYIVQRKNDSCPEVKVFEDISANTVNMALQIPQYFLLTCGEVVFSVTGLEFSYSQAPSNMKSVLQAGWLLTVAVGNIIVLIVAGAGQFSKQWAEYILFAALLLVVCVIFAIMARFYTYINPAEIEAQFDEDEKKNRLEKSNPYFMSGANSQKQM
Assay: Inhibition of human PEPT1-mediated [3H]GlySar uptake in CHO cells at 1 mM
Type: cell-based

Compound	inhibition
Cc1c(CC(=O)NCCCC[C@H](N)C(=O)N[C@H](C(=O)O)C(C)C)c(=O)oc2cc(N)c(S(=O)(=O)O)cc12	40%
Cc1c(CC(=O)NCCCC[C@H](N)C(=O)N[C@@H](C)C(=O)O)c(=O)oc2cc(N)c(S(=O)(=O)O)cc12	< 22%
Cc1c(CC(=O)NCCCC[C@H](N)C(=O)N[C@@H](CO)C(=O)O)c(=O)oc2cc(N)c(S(=O)(=O)O)cc12	< 22%
